Structures can show the parent of a compound that is named as a salt. Where two headings read alike, the source gives them in different places.
How the values were obtained:
PRMT5-MEP50 = target: T1, PRMT5-MEP50 (Homo sapiens, UniProt O14744); assay: SPR binding assay (PRMT5.MTA and PRMT5·SAM surfaces); details: steady-state fit
T1 construct: biotin (in vivo biotinylated)
Description: In vivo biotinylated PRMT5-MEP50 was diluted to […] in 25 mM Bicine pH 7.6, 100 mM NaCl, 1 mM TCEP, and 0.05% Tween-20 and injected at 5 μl/min flow rate into flow cell 2 (FC2) of a Series S Sensor Chip SA (Cytiva) in a Biacore T200 or in a Biacore 8K plus (Cytiva). SPR screening was performed in MTA running buffer (25 mM Bicine pH 7.6, 100 mM NaCl, 1 mM TCEP, 20 µM MTA, 0.05% Tween-20 and 2% DMSO). The biotinylated PRMT5-MEP50 surface was equilibrated with MTA running buffer for 12 hours prior to the start. […] Subsequently, compound titration was repeated in SAM-running buffer (25 mM Bicine pH 7.6, 100 mM NaCl, 1 mM TCEP, 20 μM SAM, 0.05% Tween-20, and 2% DMSO). […] After double referencing, the steady-state response was extracted for each fragment concentration and was fit to the Langmuir isotherm equation to determine the equilibrium dissociation constant (KD).

PRMT5/MEP50 complex = target: T2, PRMT5/MEP50 complex (Homo sapiens, UniProt O14744); assay: PRMT5:MEP50 FlashPlate Assay (histone H4 peptide methylation); format: biochemical; details: 40 nM H4 (1-15) peptide, 1 μM SAM
T2 construct: purchased Reaction Biology Corporation
Description: The PRMT5 inhibitory activity of compounds of the present invention was determined using a PRMT5: MEP50 FlashPlate Assay and a PRMT5: MEP50 HotSpot Assay (Reaction Biology Corporation).
The assay uses purified human, PRMT5 enzyme to convert S-adenosyl-L-[methyl-3H]methionine plus histone H4 L-arginine to S-adenosyl-L-homocysteine plus histone H4 [methyl-3H]-L-arginine. The assay was carried out using Streptavidin-coated FlashPlates (Perkin Elmer), which contained a scintillant embedded in the plastic of the plate. The histone H4 peptide substrate was conjugated with biotin, which binds to the streptavidin-coated well of the plate, placing the H4 peptide in close proximity to the side well and the scintillant. The transfer of the tritiated methyl group from S-adenosyl-L-[methyl-3H]methionine to the bound histone H4 peptide generated a radiolabeled histone H4, which was quantitated by measuring in a scintillation counter to determine the activity of PRMT5 enzyme in the presence and absence of compound. […] Briefly, compounds of the present invention were solubilized in 100% DMSO at a highest concentration of 10 mM. […] Control samples lacking compound, PRMT5/MEP50 complex or various reaction components also were prepared and processed in parallel with compound test samples. SAH was used as a positive control for assay validation. To measure PRMT5 inhibitory activity, 3 nM PRMT5/MEP50 complex (Reaction Biology Corporation) was preincubated with test compound in assay buffer containing 40 nM histone H4 peptide (amino acids 1-15)-Biotin conjugate for 20 min at room temperature. The enzymatic reaction was initiated by adding 1 μM tritiated S-adenosyl methionine (final concentration) and the reaction is allowed to proceed for 20 min. The reaction was stopped and the amount of bound, tritiated H4 peptide in each sample was determined using a scintillation counter.

[1] = PRMT5.MTA surface, MTA running buffer (20 µM MTA), read-out: KD MTA
[2] = PRMT5·SAM surface, SAM running buffer (20 μM SAM), read-out: KD SAM

T2 sequence (O14744 2-637 limits assumed): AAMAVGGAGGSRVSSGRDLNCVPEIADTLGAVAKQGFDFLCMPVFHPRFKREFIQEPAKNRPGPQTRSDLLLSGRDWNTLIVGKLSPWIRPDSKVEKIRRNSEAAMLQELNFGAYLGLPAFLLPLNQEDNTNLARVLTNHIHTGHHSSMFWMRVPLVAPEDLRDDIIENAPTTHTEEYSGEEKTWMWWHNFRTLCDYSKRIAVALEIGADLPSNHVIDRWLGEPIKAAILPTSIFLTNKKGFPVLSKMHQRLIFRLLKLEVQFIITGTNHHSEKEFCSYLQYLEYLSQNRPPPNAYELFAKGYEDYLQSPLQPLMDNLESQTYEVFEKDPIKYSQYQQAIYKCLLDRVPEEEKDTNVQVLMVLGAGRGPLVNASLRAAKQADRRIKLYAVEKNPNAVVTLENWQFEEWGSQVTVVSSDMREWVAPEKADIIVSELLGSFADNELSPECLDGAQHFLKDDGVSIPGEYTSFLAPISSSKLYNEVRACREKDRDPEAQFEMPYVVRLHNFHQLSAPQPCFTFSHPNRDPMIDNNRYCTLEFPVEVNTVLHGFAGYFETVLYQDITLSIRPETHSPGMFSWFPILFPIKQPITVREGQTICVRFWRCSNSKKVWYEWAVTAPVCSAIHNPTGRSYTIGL
T2 sequence (Q9BQA1 2-342 partner limits assumed): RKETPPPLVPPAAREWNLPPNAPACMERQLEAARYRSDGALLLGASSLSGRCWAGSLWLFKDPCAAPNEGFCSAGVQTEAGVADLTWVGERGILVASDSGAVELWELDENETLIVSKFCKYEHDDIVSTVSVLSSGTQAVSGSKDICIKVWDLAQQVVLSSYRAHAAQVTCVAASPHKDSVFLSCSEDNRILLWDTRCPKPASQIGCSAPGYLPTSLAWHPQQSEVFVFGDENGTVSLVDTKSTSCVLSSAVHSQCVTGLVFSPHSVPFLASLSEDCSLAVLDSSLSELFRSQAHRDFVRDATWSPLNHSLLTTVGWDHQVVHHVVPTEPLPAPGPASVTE
T1 sequence (O14744 whole entry): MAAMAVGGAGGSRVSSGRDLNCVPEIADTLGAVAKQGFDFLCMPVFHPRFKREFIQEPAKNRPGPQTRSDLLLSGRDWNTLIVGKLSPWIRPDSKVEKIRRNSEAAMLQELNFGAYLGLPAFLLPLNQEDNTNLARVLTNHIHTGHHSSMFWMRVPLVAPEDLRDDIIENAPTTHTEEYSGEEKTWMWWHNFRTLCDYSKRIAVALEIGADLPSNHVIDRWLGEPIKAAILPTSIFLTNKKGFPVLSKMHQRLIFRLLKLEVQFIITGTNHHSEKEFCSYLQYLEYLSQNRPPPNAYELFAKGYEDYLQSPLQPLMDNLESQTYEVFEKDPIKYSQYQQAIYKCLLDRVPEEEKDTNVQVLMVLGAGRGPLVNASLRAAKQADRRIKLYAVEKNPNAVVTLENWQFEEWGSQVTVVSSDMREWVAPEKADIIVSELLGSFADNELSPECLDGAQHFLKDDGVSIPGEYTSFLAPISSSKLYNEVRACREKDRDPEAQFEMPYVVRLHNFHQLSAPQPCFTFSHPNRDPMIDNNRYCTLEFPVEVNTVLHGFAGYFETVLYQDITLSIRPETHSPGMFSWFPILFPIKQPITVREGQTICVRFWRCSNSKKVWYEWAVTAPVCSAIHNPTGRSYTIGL
T1 sequence (Q9BQA1 whole entry partner): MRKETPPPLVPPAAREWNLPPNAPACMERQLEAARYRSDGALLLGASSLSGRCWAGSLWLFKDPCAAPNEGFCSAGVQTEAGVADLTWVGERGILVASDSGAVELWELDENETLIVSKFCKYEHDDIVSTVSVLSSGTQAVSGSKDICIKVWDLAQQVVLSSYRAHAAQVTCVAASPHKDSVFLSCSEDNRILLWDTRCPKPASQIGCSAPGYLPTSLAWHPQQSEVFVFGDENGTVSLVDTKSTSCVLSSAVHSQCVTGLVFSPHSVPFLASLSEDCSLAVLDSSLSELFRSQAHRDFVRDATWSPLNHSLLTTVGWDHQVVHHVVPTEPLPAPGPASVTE

Kd (PRMT5-MEP50; [1]) | Kd (PRMT5-MEP50; [2]) | IC50 (PRMT5/MEP50 complex; IC50 + 2 μM MTA, plus 2 μM MTA) | IC50 (PRMT5/MEP50 complex; absence of MTA, read-out: IC50) | Structure (SMILES)
49 µM | 65.8 µM | > 300 µM | – | Cn1ccc(-c2ccc3c(c2)nc(N)n3C)n1 [Example 1-2, 1-methyl-5-(1-methyl-1H-pyrazol-3-yl)-1H-benzo[d]imidazol-2-amine]
2.45 µM | 19.7 µM | > 300 µM | – | Cc1ncc(CNc2cccc3c2nc(N)n3C)n1-c1ccccc1 [Example 1-12, 1-methyl-N4-((2-methyl-1-phenyl-1H-imidazol-5-yl)methyl)-1H-benzo[d]imidazole-2,4-diamine]
74.2 µM | 203 µM | > 300 µM | – | Cn1c(N)nc2c(Nc3cnc4c(c3)CCCC4)cccc21 [Example 1-19, 1-methyl-N4-(5,6,7,8-tetrahydroquinolin-3-yl)-1H-benzo[d]imidazole-2,4-diamine]
20.8 µM | – | > 300 µM | – | CC(C)c1nc(Nc2cccc3c2nc(N)n3C)ns1 [Example 1-42, N4-(5-isopropyl-1,2,4-thiadiazol-3-yl)-1-methyl-1H-benzo[d]imidazole-2,4-diamine]
39.1 µM | 108 µM | – | – | COc1cccc(CN(C)c2ccc3c(c2)nc(N)n3C)c1 [Example 1-48, N5-(3-methoxybenzyl)-N5,1-dimethyl-1H-benzo[d]imidazole-2,5-diamine]
44.6 µM | 187 µM | > 300 µM | – | Cn1cc(-c2ccc3c(c2)nc(N)n3C)cn1 [Example 1-53, 1-methyl-5-(1-methyl-1H-pyrazol-4-yl)-1H-benzo[d]imidazol-2-amine]
24.5 µM | 51.9 µM | > 300 µM | – | Cn1nccc1-c1ccc2c(c1)nc(N)n2C [Example 1-56, 1-methyl-5-(1-methyl-1H-pyrazol-5-yl)-1H-benzo[d]imidazol-2-amine]
0.089 µM | 41.8 µM | > 300 µM | – | CN(Cc1nnc2n1CCOC2)c1ccc2c(c1)nc(N)n2C [Example 1-83, N5-((5,6-dihydro-8H-[1,2,4]triazolo[3,4-c][1,4]oxazin-3-yl)methyl)-N5,1-dimethyl-1H-benzo[d]imidazole-2,5-diamine]
0.512 µM | 1.67 µM | 17.9 µM | > 300 µM | Cn1ncc(-c2cccc3c2nc(N)n3C)c1-c1ccccc1C#N [Example 1-87, 2-(4-(2-amino-1-methyl-1H-benzo[d]imidazol-4-yl)-1-methyl-1H-pyrazol-5-yl)benzonitrile hydrochloride]
0.151 µM | 0.679 µM | 0.527 µM | 10.7 µM | Cn1ncc(-c2ccc(Cl)c3c2nc(N)n3C)c1-c1c(F)cc2ccccc2c1C#N [Example 2-2, 2-[4-(2-amino-7-chloro-1-methyl-benzimidazol-4-yl)-2-methyl-pyrazol-3-yl]-3-fluoro-naphthalene-1-carbonitrile hydrochloride]
26.8 µM | 40.9 µM | > 300 µM | > 300 µM | Cn1c(N)nc2c(Nc3cnc4c(c3)CCCC4)ccc(Cl)c21 [Example 2-4, 7-chloro-1-methyl-N^4-(5,6,7,8-tetrahydroquinolin-3-yl)-1H-benzo[d]imidazole-2,4-diamine hydrochloride]
24.7 µM | – | > 300 µM | > 300 µM | Cn1c(N)nc2c(C3CCOC3)ccc(Cl)c21 (stereo not drawn) [Example 2-8, 7-chloro-1-methyl-4-tetrahydrofuran-3-yl-benzimidazol-2-amine hydrochloride]
65.7 µM | 175 µM | > 300 µM | > 300 µM | CN(c1cccnc1)c1cc(Cl)c2c(c1)nc(N)n2C [Example 2-9, 7-chloro-N5-1-dimethyl-N5-(3-pyridyl)benzimidazole-2,5-diamine hydrochloride]
1.52 µM | 48.4 µM | 97.6 µM | > 300 µM | Cn1c(N)nc2cc(Cc3cccnc3)cc(Cl)c21 [Example 2-10, 7-chloro-1-methyl-5-(3-pyridylmethyl)benzimidazol-2-amine hydrochloride]
0.513 µM | 35.6 µM | 110 µM | > 300 µM | Cn1c(N)nc2cc(Cc3cccnc3)cc(C#N)c21 [Example 3-2, 2-amino-3-methyl-6-(3-pyridylmethyl)benzimidazole-4-carbonitrile]
0.187 µM | 2.75 µM | 17.6 µM | 134 µM | Cn1c(N)nc2cc(Cc3ccccn3)cc(C#N)c21 [Example 3-3, 2-amino-3-methyl-6-(2-pyridylmethyl)benzimidazole-4-carbonitrile]
1.14 µM | 2.77 µM | > 300 µM | > 300 µM | Cn1nc(-c2cc(C#N)c3c(c2)nc(N)n3C)c2cnccc21 [Example 3-5, 2-amino-3-methyl-6-(1-methylpyrazolo[4,3-c]pyridin-3-yl)benzimidazole-4-carbonitrile]
4.43 µM | 10.2 µM | > 300 µM | > 300 µM | Cn1nccc1Cc1cc(C#N)c2c(c1)nc(N)n2C [Example 3-8, 2-amino-3-methyl-6-[ (2-methylpyrazol-3-yl)methyl]benzimidazole-4-carbonitrile]
0.879 µM | 3.67 µM | 16.9 µM | 219 µM | Cn1c(N)nc2cc(Cc3ccc4ccncc4c3)cc(C#N)c21 [Example 3-9, 2-amino-6-(7-isoquinolylmethyl)-3-methyl-benzimidazole-4-carbonitrile]
7.51 µM | 23.6 µM | > 300 µM | > 300 µM | Cn1c(N)nc2cc(C(=O)c3cccnc3)cc(C#N)c21 [Example 3-16, 2-amino-3-methyl-6-(pyridine-3-carbonyl)benzimidazole-4-carbonitrile]
16.3 µM | 79.6 µM | – | – | COc1c(Cc2cccnc2)cc(C#N)c2c1nc(N)n2C [Example 3-22, 2-amino-7-methoxy-3-methyl-6-(3-pyridylmethyl)benzimidazole-4-carbonitrile hydrochloride]
16.9 µM | 32.5 µM | – | – | Cn1c(N)nc2c(Nc3cnc4c(c3)CCCC4)ccc(C#N)c21 [Example 3-30, 2-amino-1-methyl-4-((5,6,7,8-tetrahydroquinolin-3-yl)amino)-1H-benzo[d]imidazole-7-carbonitrile]
– | 176 µM | 76.2 µM | > 300 µM | Nc1nc2ncccc2n1Cc1ccccc1 [Example 5-2, 1-benzylimidazo[4,5-b]pyridin-2-amine hydrochloride]
0.322 µM | 0.816 µM | 14 µM | > 300 µM | Cn1ncc(-c2cc(Cl)cc3c2nc(N)n3C)c1-c1ccccc1C#N [Example 6-1, 2-[4-(2-amino-6-chloro-1-methyl-benzimidazol-4-yl)-2-methyl-pyrazol-3-yl]benzonitrile]
0.047 µM | – | 29.3 µM | > 300 µM | Cc1cc(-c2cnn(C)c2-c2ccccc2C#N)c2nc(N)n(C)c2c1 [Example 6-2, 2-[4-(2-amino-1,6-dimethyl-benzimidazol-4-yl)-2-methyl-pyrazol-3-yl]benzonitrile hydrochloride]

Structure (SMILES) | Kd (PRMT5-MEP50; [1]) | Kd (PRMT5-MEP50; [2]) | IC50 (PRMT5/MEP50 complex; IC50 + 2 μM MTA, plus 2 μM MTA) | IC50 (PRMT5/MEP50 complex; absence of MTA, read-out: IC50)
Cn1cc(Cc2cc(C#N)c3c(c2)nc(N)n3C)cn1 [Example 3-6, 2-amino-3-methyl-6-[ (1-methylpyrazol-4-yl)methyl]benzimidazole-4-carbonitrile] | 0.179 µM | 1.94 µM | 44.4 µM | > 300 µM
